Data: ChEMBL document CHEMBL2380212, “Synthesis, single crystal and antitumor activities of benzimidazole-quinazoline hybrids” (Bioorg Med Chem Lett, 2013)

Assays:
[1] = n-Octanol-phosphate buffer partition coefficient, log P of the compound at pH 7.4 by shake flask method; format: physicochemical
MDA-MB-468 = test: Cytotoxicity against human MDA-MB-468 cells at 10 uM after 48 hrs by SRB assay; format: functional; settings: MDA-MB-468, 48 h, read-out: GI
T47D = test: Cytotoxicity against human T47D cells at 10 uM after 48 hrs by SRB assay; format: functional; settings: read-out: GI
Hs-578T = test: Cytotoxicity against human Hs578T cells at 10 uM after 48 hrs by SRB assay; format: functional; settings: read-out: GI
MCF7 = test: Cytotoxicity against human MCF7 cells at 10 uM after 48 hrs by SRB assay; format: functional; settings: MCF7, 48 h, read-out: GI
MDA-MB-231 = test: Cytotoxicity against human MDA-MB-231 cells at 10 uM after 48 hrs by SRB assay; format: functional; settings: MDA-MB-231, 48 h, read-out: GI
UO-31 = test: Cytotoxicity against human UO31 cells at 10 uM after 48 hrs by SRB assay; format: functional; settings: UO-31, 48 h, read-out: GI
TK-10 = test: Cytotoxicity against human TK10 cells at 10 uM after 48 hrs by SRB assay; format: functional; settings: TK-10, 48 h, read-out: GI
RXF 393 = test: Cytotoxicity against human RXF393 cells at 10 uM after 48 hrs by SRB assay; format: functional; settings: RXF 393, 48 h, read-out: GI
SN12C = test: Cytotoxicity against human SN12C cells at 10 uM after 48 hrs by SRB assay; format: functional; settings: read-out: GI
CAKI-1 = test: Cytotoxicity against human Caki1 cells at 10 uM after 48 hrs by SRB assay; format: functional; settings: CAKI-1, 48 h, read-out: GI
ACHN = test: Cytotoxicity against human ACHN cells at 10 uM after 48 hrs by SRB assay; format: functional; settings: read-out: GI
A498 = test: Cytotoxicity against human A498 cells at 10 uM after 48 hrs by SRB assay; format: functional; settings: A498, 48 h, read-out: GI
786-0 = test: Cytotoxicity against human 786-0 cells at 10 uM after 48 hrs by SRB assay; format: functional; settings: 786-0, 48 h, read-out: GI
SK-OV-3 = test: Cytotoxicity against human SKOV3 cells at 10 uM after 48 hrs by SRB assay; format: functional; settings: SK-OV-3, 48 h, read-out: GI
OVCAR-5 = test: Cytotoxicity against human OVCAR5 cells at 10 uM after 48 hrs by SRB assay; format: functional; settings: OVCAR-5, 48 h, read-out: GI
OVCAR-3 = test: Cytotoxicity against human OVCAR3 cells at 10 uM after 48 hrs by SRB assay; format: functional; settings: OVCAR-3, 48 h, read-out: GI
IGROV-1 = test: Cytotoxicity against human IGROV1 cells at 10 uM after 48 hrs by SRB assay; format: functional; settings: IGROV-1, 48 h, read-out: GI
UACC-62 = test: Cytotoxicity against human UACC62 cells at 10 uM after 48 hrs by SRB assay; format: functional; settings: UACC-62, 48 h, read-out: GI
SK-MEL-28 = test: Cytotoxicity against human SK-MEL-28 cells at 10 uM after 48 hrs by SRB assay; format: functional; settings: SK-MEL-28, 48 h, read-out: GI
SK-MEL-5 = test: Cytotoxicity against human SK-MEL-5 cells at 10 uM after 48 hrs by SRB assay; format: functional; settings: SK-MEL-5, 48 h, read-out: GI
M14 = test: Cytotoxicity against human M14 cells at 10 uM after 48 hrs by SRB assay; format: functional; settings: M14, 48 h, read-out: GI
MDA-MB-435 = test: Cytotoxicity against human MDA-MB-435 cells at 10 uM after 48 hrs by SRB assay; format: functional; settings: MDA-MB-435, 48 h, read-out: GI
LOX IMVI = test: Cytotoxicity against human LOXIMVI cells at 10 uM after 48 hrs by SRB assay; format: functional; settings: read-out: GI
SNB-75 = test: Cytotoxicity against human SNB75 cells at 10 uM after 48 hrs by SRB assay; format: functional; settings: SNB-75, 48 h, read-out: GI
SNB-19 = test: Cytotoxicity against human SNB19 cells at 10 uM after 48 hrs by SRB assay; format: functional; settings: SNB-19, 48 h, read-out: GI
SF-295 = test: Cytotoxicity against human SF295 cells at 10 uM after 48 hrs by SRB assay; format: functional; settings: SF-295, 48 h, read-out: GI
SF-539 = test: Cytotoxicity against human SF539 cells at 10 uM after 48 hrs by SRB assay; format: functional; settings: SF-539, 48 h, read-out: GI
SW-620 = test: Cytotoxicity against human SW620 cells at 10 uM after 48 hrs by SRB assay; format: functional; settings: SW-620, 48 h, read-out: GI
HCT-15 = test: Cytotoxicity against human HCT15 cells at 10 uM after 48 hrs by SRB assay; format: functional; settings: HCT-15, 48 h, read-out: GI
HCT-116 = test: Cytotoxicity against human HCT116 cells at 10 uM after 48 hrs by SRB assay; format: functional; settings: HCT-116, 48 h, read-out: GI
HCC 2998 = test: Cytotoxicity against human HCC2998 cells at 10 uM after 48 hrs by SRB assay; format: functional; settings: HCC 2998, 48 h, read-out: GI
COLO 205 = test: Cytotoxicity against human COLO205 cells at 10 uM after 48 hrs by SRB assay; format: functional; settings: COLO 205, 48 h, read-out: GI
NCI-H522 = test: Cytotoxicity against human NCI-H522 cells at 10 uM after 48 hrs by SRB assay; format: functional; settings: NCI-H522, 48 h, read-out: GI
NCI-H322M = test: Cytotoxicity against human NCI-H322M cells at 10 uM after 48 hrs by SRB assay; format: functional; settings: read-out: GI
NCI-H23 = test: Cytotoxicity against human NCI-H23 cells at 10 uM after 48 hrs by SRB assay; format: functional; settings: NCI-H23, 48 h, read-out: GI
HOP-62 = test: Cytotoxicity against human HOP62 cells at 10 uM after 48 hrs by SRB assay; format: functional; settings: HOP-62, 48 h, read-out: GI
HOP-92 = test: Cytotoxicity against human HOP92 cells at 10 uM after 48 hrs by SRB assay; format: functional; settings: HOP-92, 48 h, read-out: GI
[2] = Cytotoxicity against human EKVX cells at 10 uM after 48 hrs by SRB assay; format: functional; settings: read-out: GI
A549 = test: Cytotoxicity against human A549 cells at 10 uM after 48 hrs by SRB assay; format: functional; settings: A549, 48 h, read-out: GI
MOLT-4 = test: Cytotoxicity against human MOLT4 cells at 10 uM after 48 hrs by SRB assay; format: functional; settings: MOLT-4, 48 h, read-out: GI
HL-60(TB) = test: Cytotoxicity against human HL-60(TB) cells at 10 uM after 48 hrs by SRB assay; format: functional; settings: HL-60, 48 h, read-out: GI

## C=CCn1c(C)nc2cc(Nc3nc(N4CCOCC4)nc4ccccc34)ccc21
[1]
  logD: 2.49
MDA-MB-468
  inhibition of growth at 10 µM: < 10%
T47D
  inhibition of growth at 10 µM: < 10%
Hs-578T
  inhibition of growth at 10 µM: < 10%
MCF7
  inhibition of growth at 10 µM: < 10%
MDA-MB-231
  inhibition of growth at 10 µM: < 10%
UO-31
  inhibition of growth at 10 µM: < 10%
TK-10
  inhibition of growth at 10 µM: < 10%
RXF 393
  inhibition of growth at 10 µM: < 10%
SN12C
  inhibition of growth at 10 µM: < 10%
CAKI-1
  inhibition of growth at 10 µM: < 10%
ACHN
  inhibition of growth at 10 µM: < 10%
A498
  inhibition of growth at 10 µM: 20.7%
786-0
  inhibition of growth at 10 µM: < 10%
SK-OV-3
  inhibition of growth at 10 µM: < 10%
OVCAR-5
  inhibition of growth at 10 µM: < 10%
OVCAR-3
  inhibition of growth at 10 µM: < 10%
IGROV-1
  inhibition of growth at 10 µM: < 10%
UACC-62
  inhibition of growth at 10 µM: < 10%
SK-MEL-28
  inhibition of growth at 10 µM: < 10%
SK-MEL-5
  inhibition of growth at 10 µM: < 10%
M14
  inhibition of growth at 10 µM: < 10%
MDA-MB-435
  inhibition of growth at 10 µM: < 10%
LOX IMVI
  inhibition of growth at 10 µM: < 10%
SNB-75
  inhibition of growth at 10 µM: < 10%
SNB-19
  inhibition of growth at 10 µM: < 10%
SF-295
  inhibition of growth at 10 µM: < 10%
SF-539
  inhibition of growth at 10 µM: < 10%
SW-620
  inhibition of growth at 10 µM: < 10%
HCT-15
  inhibition of growth at 10 µM: < 10%
HCT-116
  inhibition of growth at 10 µM: < 10%
HCC 2998
  inhibition of growth at 10 µM: < 10%
COLO 205
  inhibition of growth at 10 µM: < 10%
NCI-H522
  inhibition of growth at 10 µM: < 10%
NCI-H322M
  inhibition of growth at 10 µM: < 10%
NCI-H23
  inhibition of growth at 10 µM: < 10%
HOP-62
  inhibition of growth at 10 µM: < 10%
HOP-92
  inhibition of growth at 10 µM: < 10%
[2]
  inhibition of growth at 10 µM: < 10%
A549
  inhibition of growth at 10 µM: < 10%
MOLT-4
  inhibition of growth at 10 µM: < 10%
HL-60(TB)
  inhibition of growth at 10 µM: 13.5%
